Measurements reported in PMC9937993, “Structures of the NDP-pyranose mutase belonging to glycosyltransferase family 75 reveal residues important for Mn^2+ coordination and substrate binding” (The Journal of Biological Chemistry, 2023).

Columns and labels:
Type in all cases: binding
MtdL [1] = target: MtdL (Marinactinospora thermotolerans, UniProt G8HX37, N42D); assay: ITC
MtdL [2] = target: T1, MtdL (Marinactinospora thermotolerans, UniProt G8HX37); assay: ITC; crystal structure of GDP·Mn2+·MtdL at […] Å
T1 sequence (G8HX37 1-376): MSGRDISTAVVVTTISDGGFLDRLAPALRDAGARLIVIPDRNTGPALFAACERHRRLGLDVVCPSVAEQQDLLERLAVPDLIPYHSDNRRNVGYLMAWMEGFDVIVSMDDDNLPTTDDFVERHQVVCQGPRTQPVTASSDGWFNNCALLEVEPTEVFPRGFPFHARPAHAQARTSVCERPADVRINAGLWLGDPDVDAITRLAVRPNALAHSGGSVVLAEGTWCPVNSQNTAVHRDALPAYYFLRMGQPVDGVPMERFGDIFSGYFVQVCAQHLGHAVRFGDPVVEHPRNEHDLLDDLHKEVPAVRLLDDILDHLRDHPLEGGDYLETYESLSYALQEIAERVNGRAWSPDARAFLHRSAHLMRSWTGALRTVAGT

MtdL [3] = target: MtdL (Marinactinospora thermotolerans, UniProt G8HX37, T13P); assay: ITC

`Nc1nc2c(ncn2[C@@H]2O[C@H](COP(=O)(O)OP(=O)(O)O)[C@@H](O)[C@H]2O)c(=O)[nH]1` [GDP] showed a Kd (MtdL [1]) of about 1240 nM, a Kd (MtdL [2]) of about 200 nM and a Kd (MtdL [3]) of about 5660 nM.
